Here are results for 15 compounds from PubChem BioAssay (NCI).

Where “and” joins values, the source holds several entries; their conditions need not be identical. Identical values can stand only once.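 Growth conditions: 96-well plates. Treatment: test compound, 48 hours, 5 concentrations. Analysis: linear interpolation between bracketing concentrations; unreached endpoints set to highest concentration. GI50: concentration for 50% inhibition of growth. TGI is the concentration that stops growth completely.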 Some results are limits rather than exact numbers.

What all share (assay): inhibition of tumour cell growth, NCI panel, 48 h
Test [1] concerns SW-620 colon.
The subject of test [2] is A498 renal.
Test [3] relates to K-562 leukemia.
In test [4] the test system is MOLT-4 leukemia.
Test [5] deals with M14 melanoma.
For test [6], the system named is SK-MEL-28 melanoma.
Test [7] deals with HCT-116 colon.
Test [8] relates to HL-60(TB) leukemia.
Test [9] has as its system MDA-MB-435.
The subject of test [10] is NCI-H226 lung.

As to `CN1c2ccccc2S(=O)(=O)n2c(CCc3ccccc3)nnc21`, the TGI in test [1], in test [2], in [3], in test [4], in test [5] and in [6] was over 100 µM throughout. Further, the TGI in [7], in [8], in test [9] and in test [10] was over 100 µM each time.

For `CCCCN(CC)c1ncnc2ccc(Br)cc12`, the GI50 in test [2] is 10.2 µM; in test [3], 10.4 µM; in [4], 2.45 µM; in test [5], 18.2 µM; in [6], 18.1 µM; in [7] it was 15.8 µM. The GI50 in [9] is 16 µM; in test [10], 16.3 µM. Moreover, the TGI was 23.6 µM in [2]; 51.1 µM in [3]; over 100 µM in test [4]; 34.7 µM in test [5]; 46.5 µM in test [6]; 36.2 µM in [7]. Moreover, the TGI came to 34.4 µM in [9] and 48 µM in [10].

Take `COc1nc(C)cc2c(=O)n(-c3ccccc3)n(CC(O)CN3CCN(c4ccc(Cl)cc4)CC3)c(=O)c12` (centres undefined): the GI50 in [1], in [2], in test [3], in [4], in test [5] and in test [6] was over 50 µM throughout. Also, the GI50 in [7], in [8], in [9] and in [10] was over 50 µM throughout. Besides, the TGI in test [1], in test [2], in test [3], in test [4], in test [5] and in test [6] was over 50 µM throughout. For the same compound, the TGI in test [7], in [8], in [9] and in test [10] was over 50 µM each time.

For the compound `Cc1cc(=O)oc2cc(OC(=O)N(CCCl)CCCl)ccc12`, the TGI in test [1], in test [2], in [3], in test [4], in test [5] and in test [6] was over 100 µM each time. Besides, the TGI in test [7], in test [8], in test [9] and in test [10] was over 100 µM in each case.

As for `COc1cc2ncnc3c2cc1OCCCCCN(C)Cc1ccc(Br)cc1N3`, the GI50 in test [1] was 6.31 µM and 5.72 µM; in test [2], 1.35 µM and 0.539 µM; in [3], 3.98 µM and 2.93 µM; in test [4], 6.85 µM and 3.88 µM; in test [5], 1.94 µM and 0.939 µM; in [6], 6.68 µM and 7.54 µM. Moreover, the GI50 in [7] was 13.9 µM and 1.48 µM; in [8], 2.94 µM and 3.68 µM; in test [9], 8.63 µM and 7.39 µM; in [10], 26.4 µM and 7.69 µM. In addition, the TGI in test [1] is over 100 µM; in test [2], 17.3 µM and > 10 µM; in test [3] it was over 100 µM; in test [4], over 100 µM; in [5], over 100 µM; in test [6] it was over 100 µM. Moreover, the TGI in test [7], in test [8], in test [9] and in test [10] was over 100 µM throughout.

Consider `CC1(C)C=[N+]([O-])C(C)(C)N1O`, for which the TGI in test [1], in [3], in test [4], in test [5], in test [7] and in test [8] was over 10 µM in each case. The TGI in [9] and in test [10] was over 10 µM throughout.

Take `Oc1c(CN2CCCC2)cc(CSCc2ccccc2)c2cccnc12`: the GI50 in test [1] is 0.797 µM; in test [2], 2.26 µM; in [3], 0.551 µM; in [4] it was 0.671 µM; in [5], 0.397 µM; in test [6], 1.85 µM. In addition, the GI50 in [7] is 0.694 µM; in [8] it was 0.554 µM; in test [9] it was 1.4 µM; in [10], 1.11 µM. For the same compound, the TGI in test [1] was found to be 11.2 µM; in test [2], 8.08 µM; in test [3], 10.6 µM; in test [4], 2.74 µM; in test [5] it was 2.59 µM; in test [6], 13.6 µM. In addition, the TGI turned out to be 10.1 µM in test [7], 2.77 µM in test [8], 13.6 µM in test [9] and 4.8 µM in [10].

As to `C[C@]12CC[C@@H](OC(=O)N(CCCl)N=O)C[C@@H]1CC[C@@H]1[C@@H]2CC[C@]2(C)C(=O)CC[C@@H]12`, the GI50 in test [1] was 7.67 µM; in test [2] it was 1.68 µM; in [5], 14.7 µM; in test [6], 14.7 µM; in [7], 7.25 µM; in test [9], 10.6 µM. Moreover, in test [10], the GI50 was 14.6 µM. In addition, the TGI in [1] was 22.6 µM; in [2] it was 4.29 µM; in test [3], over 100 µM; in test [4], over 57.7 µM; in test [5], 44.9 µM; in test [6], 29.6 µM. Besides, the TGI in test [7] turned out to be 30.5 µM; in test [9] it was 44.1 µM; in [10], 31.4 µM.

Consider `CCOC(=O)Cc1csc(N=Nc2c(O)[nH]c3ccccc23)n1`, for which the TGI in test [1] was over 100 µM; in test [2], over 100 µM; in test [3], over 100 µM; in [4], 73.1 µM; in test [5], over 100 µM; in test [7], over 100 µM. The TGI in [8] was 50.7 µM; in test [9] it was over 100 µM; in test [10] it was over 100 µM.

`COC(=O)c1ccc2c(c1)C(=O)c1c-2n(CCCN)c(=O)c2cc(OC)c(OC)cc12`: the GI50 is 7.9 µM in [1]; 17.4 µM in test [2]; 2.41 µM in test [3]; 1.83 µM in [4]; 18.7 µM in test [5]; 17.9 µM in [6]. The GI50 in [7] is 16.5 µM; in test [9], 21.6 µM; in test [10] it was 16.7 µM. For the same compound, the TGI amounted to 24.4 µM in test [1]; 36.2 µM in test [2]; 5.44 µM in test [3]; 4.67 µM in [4]; 34.4 µM in test [5]; 35.2 µM in test [6]. Moreover, the values for the TGI in [7], in test [9] and in [10] were 39.7 µM, 46.2 µM and 36.7 µM, respectively.

For `Cc1ccc(/C=C2/NC(=S)SC2=O)cc1`, the TGI in test [1], in [4], in test [5], in test [6], in test [7] and in [8] was over 100 µM in each case. Besides, the TGI in test [9] and in test [10] was over 100 µM in each case.

Regarding `CC1(C)C(=O)C=CC2(C)C1CC(O)C1(C)C2CCC2(C)C(c3ccoc3)OC(=O)C3OC321` (centres undefined), the TGI in [1] was 59.9 µM; in [2], 28.8 µM; in test [3], over 100 µM; in [4], 27.2 µM; in [5], over 100 µM; in test [6] it was 70.3 µM. Besides, the TGI was 31.7 µM in [7], 72.7 µM in test [9] and 33.3 µM in [10].

Take `CNCCNc1nc2ccccc2c2c(=O)c3cc(OC)ccc3sc12`: the GI50 in [1] is 1.41 µM; in test [2], 2.12 µM; in [4], 1.77 µM; in test [5], 1.73 µM; in test [6], 1.84 µM; in test [7], 1.34 µM. Also, the results for the GI50 in test [8], in test [9] and in test [10] were 1.9 µM, 1.72 µM and 1.75 µM, respectively. The TGI in [1] was 2.91 µM; in test [2], 6.8 µM; in test [4], 3.53 µM; in test [5], 3.23 µM; in test [6], 3.34 µM; in test [7], 2.62 µM. For the same compound, the results for the TGI in test [8], in test [9] and in [10] were 3.6 µM, 3.13 µM and 3.61 µM, respectively.

For `Clc1ccc2c(c1)C(N1CCNCC1)=Nc1ccccc1O2`, the GI50 was 1.62 µM in test [1]; 3.1 µM in [2]; 1.82 µM in [4]; 1.68 µM in test [5]; 1.61 µM in [6]; 1.42 µM in [7]. The GI50 in [8] was 1.95 µM; in [9], 1.65 µM; in test [10] it was 2.57 µM. Further, the TGI in test [1] was found to be 3.15 µM; in test [2], 5.46 µM; in test [4], 4.19 µM; in test [5], 3.07 µM; in test [6], 2.96 µM; in test [7], 2.8 µM. The TGI came out at 3.86 µM in test [8], 3.11 µM in test [9] and 11.9 µM in test [10].

Consider `NC(=S)NNC(=S)NC(=O)c1ccco1`, for which the TGI in test [1], in test [3], in test [4], in [5], in test [6] and in test [7] was over 10 µM each time. In addition, the TGI in [8], in test [9] and in test [10] was over 10 µM each time.
